Assay results from PubChem BioAssay AID2060362 (Molecular Pharmacology Branch, DTP, NCI, 2025).
“And” between values parts separate entries of the source, which are not always exact repeats. Identical values can stand only once.

Test system: 128128-338-R-J1-PDC spheroids, viability % test/control
Experiment: Anticancer human tumor 128128-338-R-J1-PDC patient-derived melanoma cell line growth inhibition [TAK]
Conditions: spheroids with HUVEC and MSC; for viability, T/C: stronger effect = lower value
From the text: Combinatorial screen of targeted agents with TAK-243 and ipatasertib in multi-cell type tumor spheroids
A high-throughput screen of multi-cell type tumor spheroids was designed to identify active combinations of targeted small molecules and TAK-243 or ipatasertib. Complex spheroids include a stromal component modeled by human endothelial cells (HUVEC) and fibroblasts modeled by human mesenchymal stem cells (MSCs). The concentration ranges selected for each drug and investigational agent were based upon clinically achievable concentrations if the clinical Cmax of the agent was known.
Compounds. The drugs and investigational agents: TAK-243 (785004), ipatasertib (767898), everolimus (733504), selumetinib (741078), bortezomib (756655), trametinib (758246), ixazomib (758254), vemurafenib (761431), dabrafenib (764134), sapanisertib (764658), alpelisib (765974), and copanlisib (816437), were obtained from the National Cancer Institute (NCI) Developmental Therapeutics Program Chemical Repository. The FDA-approved anticancer drug set is available from the NCI Developmental Therapeutics Program. […] The stock solutions were prepared in dimethyl sulfoxide (DMSO, Sigma-Aldrich, St. Louis, MO, cat. D2650) at 800-fold the tested concentration and stored at -70 degrees C prior to their use. All drugs and investigational agents were tested over a range starting from a high concentration at or near the clinical Cmax and decreasing in half-log increments. If the clinical Cmax for an agent had not been determined, the highest concentration tested was 10 microM.
NCI60 Cell Culture. NCI60 cell lines were obtained from the NCI Developmental Therapeutics Program Tumor Repository. For each lot of cells, the Repository performed Applied Biosystems AmpFLSTR Identifiler testing with PCR amplification to confirm consistency with the published Identifier STR profile for each cell line. Cells were kept in continuous culture for no more than 20 passages. The optimal seeding densities for each of the cell lines at each time point assessed were determined prior to performing the concentration response studies. Briefly, the NCI60 human tumor lines were grown as monolayers in RPMI 1640 medium supplemented with 10% FBS and 2 mmol/L L-glutamine.
An additional 2 lines were from the NCI60 cell line panel including melanomas, MALME-3M and SK-MEL-2. Pooled donor human umbilical vein endothelial cells (HUVEC, Lonza, cat. CC-2519) and human mesenchymal stem cells (hMSC, Lonza, cat. PT-2501) were purchased from Lonza (Walkersville, MD).
PDMR cell lines were grown in complete medium (DC medium): Dulbecco's modified Eagle's medium (DMEM)/F12 supplemented with 5% fetal bovine serum (FBS), 2 mM L-glutamine, 100 U/mL penicillin and 100 µg/ml streptomycin, 0.4 µg/ml hydrocortisone, 10 ng/ml epidermal growth factor (EGF) recombinant human protein, 24 µg/mL adenine, and 0.1 mg/mL primocin. During culture from frozen stock vials, PDMR cells were cultured in the same medium containing 10 µM Y-27632 (see Table 3). The PDCs were cultured in complete DMEM/F12 media without 10 microM Y-27632 dihydrochloride for at least two passages prior to the screen. The pooled donor HUVEC and hMSC were cultured in endothelial cell growth medium 2 (PromoCell, Heidelberg, Germany, cat. C-22011) and mesenchymal stem cell growth medium 2 (PromoCell, cat. C-28009), respectively. For all experiments, HUVEC and hMSC were used at passages </=5.
For the pre-screen, cell seeding densities were determined from a titration spanning the range from 5,000 to 313 cells per well. The mct-spheroids including 60% malignant cells, 25% HUVEC and 15% MSC dispensed as a mixture into U-bottom Ultra-Low Attachment 384-well plates (Corning, NY)
High-throughput Drug Combination Screening.
Prior to their inoculation into 384-well plates, malignant cells, HUVEC, and hMSC were removed from T flasks using TrypLE express (Thermo Fisher Scientific, cat. 12605036) and harvested by centrifugation for 5 min at 233 x g. […]

[1] = curve of first compound, second compound 0.3 µM
[2] = curve of first compound, second compound 0.949 µM
[3] = curve of first compound, second compound 3 µM
[4] = curve of first compound, second compound 9.49 µM
[5] = curve of first compound, second compound 30 µM
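Further: spheroids exposed to compounds for 7 days.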
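Wherever viability, T/C is given: 100% = DMSO vehicle wells.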

Work on `CC(C)n1nc(-c2ccc3oc(N)nc3c2)c2c(N)ncnc21` + CC(C)NCC(C(=O)N1CCN(c2ncnc3c2C(C)CC3O)CC1)c1ccc(Cl)cc1 yielded an IC50 [1] of 15.4 nM, an IC50 [2] of 14.1 nM and an IC50 [3] of 7.82 nM. The IC50 [4] was 1.81 nM, the IC50 [5] was less than 0.316 nM and the viability, T/C (second compound 0.3 µM, first compound 0.000316 µM) was 96%. The viability, T/C (second compound 0.3 µM, first compound 0.001 µM) was 96.5%, the viability, T/C (second compound 0.3 µM, first compound 0.00316 µM) was 89.6% and the viability, T/C (second compound 0.3 µM, first compound 0.01 µM) was 59.2%. For the same molecule, the viability, T/C (second compound 0.3 µM, first compound 0.0316 µM) was 31.3%, the viability, T/C (second compound 0.3 µM, first compound 0.1 µM) was 6.8% and the viability, T/C (second compound 0.949 µM, first compound 0.000316 µM) was 88.9%. For the same molecule, the viability, T/C (second compound 0.949 µM, first compound 0.001 µM) was 95.8%, the viability, T/C (second compound 0.949 µM, first compound 0.00316 µM) was 80.1% and the viability, T/C (second compound 0.949 µM, first compound 0.01 µM) was 58.4%. It also gave a viability, T/C (second compound 0.949 µM, first compound 0.0316 µM) of 29%, a viability, T/C (second compound 0.949 µM, first compound 0.1 µM) of 4.5% and a viability, T/C (second compound 3 µM, first compound 0.000316 µM) of 88.5%. For the same molecule, the viability, T/C (second compound 3 µM, first compound 0.001 µM) was 77.5%, the viability, T/C (second compound 3 µM, first compound 0.00316 µM) was 68.5% and the viability, T/C (second compound 3 µM, first compound 0.01 µM) was 47%. For the same molecule, the viability, T/C (second compound 3 µM, first compound 0.0316 µM) was 18%, the viability, T/C (second compound 3 µM, first compound 0.1 µM) was 4.85% and the viability, T/C (second compound 9.49 µM, first compound 0.000316 µM) was 66.6%. It also gave a viability, T/C (second compound 9.49 µM, first compound 0.001 µM) of 57.3%, a viability, T/C (second compound 9.49 µM, first compound 0.00316 µM) of 43% and a viability, T/C (second compound 9.49 µM, first compound 0.01 µM) of 17.2%. For the same molecule, the viability, T/C (second compound 9.49 µM, first compound 0.0316 µM) was 5.97%, the viability, T/C (second compound 9.49 µM, first compound 0.1 µM) was 0.5% and the viability, T/C (second compound 30 µM, first compound 0.000316 µM) was 16.4%. It also gave a viability, T/C (second compound 30 µM, first compound 0.001 µM) of 18.2%, a viability, T/C (second compound 30 µM, first compound 0.00316 µM) of 11.7% and a viability, T/C (second compound 30 µM, first compound 0.01 µM) of 2.86%. For the same molecule, the viability, T/C (second compound 30 µM, first compound 0.0316 µM) was 0.38% and the viability, T/C (second compound 30 µM, first compound 0.1 µM) was 0.2%.

With `CCCS(=O)(=O)Nc1ccc(F)c(C(=O)c2c[nH]c3ncc(-c4ccc(Cl)cc4)cc23)c1F` + CC(C)NCC(C(=O)N1CCN(c2ncnc3c2C(C)CC3O)CC1)c1ccc(Cl)cc1 the IC50 [1] was 1070 nM, the IC50 [2] was 1110 nM and the IC50 [3] was 462 nM. For the same molecule, the IC50 [4] was less than 316 nM, the IC50 [5] was less than 316 nM and the viability, T/C (second compound 0.3 µM, first compound 0.316 µM) was 82.5%. The viability, T/C (second compound 0.3 µM, first compound 1 µM) was 52.1%, the viability, T/C (second compound 0.3 µM, first compound 3.16 µM) was 12.2% and the viability, T/C (second compound 0.3 µM, first compound 10 µM) was 0.57%. For the same molecule, the viability, T/C (second compound 0.3 µM, first compound 31.6 µM) was 0.08%, the viability, T/C (second compound 0.3 µM, first compound 100 µM) was 0.68% and the viability, T/C (second compound 0.949 µM, first compound 0.316 µM) was 74.3%. For the same molecule, the viability, T/C (second compound 0.949 µM, first compound 1 µM) was 54.4%, the viability, T/C (second compound 0.949 µM, first compound 3.16 µM) was 7.73% and the viability, T/C (second compound 0.949 µM, first compound 10 µM) was 0.33%. The viability, T/C (second compound 0.949 µM, first compound 31.6 µM) was 0.08%, the viability, T/C (second compound 0.949 µM, first compound 100 µM) was 0.4% and the viability, T/C (second compound 3 µM, first compound 0.316 µM) was 63.9%. It also gave a viability, T/C (second compound 3 µM, first compound 1 µM) of 22.1%, a viability, T/C (second compound 3 µM, first compound 3.16 µM) of 1.94% and a viability, T/C (second compound 3 µM, first compound 10 µM) of 0.06%. The viability, T/C (second compound 3 µM, first compound 31.6 µM) was 0.03%, the viability, T/C (second compound 3 µM, first compound 100 µM) was 0.24% and the viability, T/C (second compound 9.49 µM, first compound 0.316 µM) was 30.6%. It also gave a viability, T/C (second compound 9.49 µM, first compound 1 µM) of 9.75%, a viability, T/C (second compound 9.49 µM, first compound 3.16 µM) of 0.65% and a viability, T/C (second compound 9.49 µM, first compound 10 µM) of 0.02%. For the same molecule, the viability, T/C (second compound 9.49 µM, first compound 31.6 µM) was 0.03%, the viability, T/C (second compound 9.49 µM, first compound 100 µM) was 0.11% and the viability, T/C (second compound 30 µM, first compound 0.316 µM) was 2.32%. It also gave a viability, T/C (second compound 30 µM, first compound 1 µM) of 0.63%, a viability, T/C (second compound 30 µM, first compound 3.16 µM) of 0.12% and a viability, T/C (second compound 30 µM, first compound 10 µM) of 0.07%. It also gave a viability, T/C (second compound 30 µM, first compound 31.6 µM) of 0.08% and a viability, T/C (second compound 30 µM, first compound 100 µM) of 0.12%.

With `CC(=O)Nc1cccc(-n2c(=O)n(C3CC3)c(=O)c3c(Nc4ccc(I)cc4F)n(C)c(=O)c(C)c32)c1` the viability, T/C (compound 94.9 pM) was 98.2% and 101%, the viability, T/C (compound 0.0003 µM) was 97.9% and 94.4% and the viability, T/C (compound 0.000949 µM) was 82.8% and 70%. For the same molecule, the viability, T/C (compound 0.003 µM) was 41.4% and 25.6%, the viability, T/C (compound 0.00949 µM) was 5.07% and 3.1% and the viability, T/C (compound 0.03 µM) was 2.37% and 2.18%. The IC50 (curve of compound) was 2.32 nM and 1.58 nM.
